This is an account of results in patent publication US7863499B2, “Model of infantile spasm syndrome” (Albert Einstein College of Medicine of Yeshiva University, priority 2007, dated 2011).

The subject of this assay is rat pups. The assay can be described thus: Induction of spasm-like seizures in rat pups (video monitoring). Type of assay: in vivo. The conditions noted are these: PCPA only, five pups. The protocol: […] The pups were injected with DOX i.c.v. and LPS intracerebrally in the right centroparietal cortex at P3; PCPA was administered i.p. at P5. […] There were no sex differences and the data were combined.
Behavioral seizures and spasm-like episodes. […] Seven pups had recurrent seizures resembling spasms. Spasms were first observed at P7 in 60% of the pups. […] The spasms were characterized by the abrupt onset of flexion of the trunk with extension of the limbs at the height of the spasm (the sequence is shown in FIG. 2). In two pups, extension spasms were sometimes observed. The spasms lasted from 1 to 5 seconds.
Anesthesia. Rat pups were anesthetized with 2% isoflurane in 100% O2 continuously delivered by a small facemask, custom-fitted to the stereotaxic frame.
Injections of DOX and LPS. Both male and female rats were used. At P3, stereotaxic injections of DOX and LPS were performed using a 25 μL Hamilton syringe. DOX was injected into the right ventricle (AP=−1.0, ML=1.1, DV=−3.3, reference to bregma) and LPS into the right cerebral hemisphere (AP=−1.0, ML=1.0, DV=2.0, reference to bregma). The injection volume is 5 μl for DOX and 7 μl for LPS. The pups were allowed to recover before returning to the dam.
Titration of doses of agents used to induce spasms. […]

As for `N[C@@H](Cc1ccc(Cl)cc1)C(=O)O` (racemic) [PCPA, p-chlorophenylalanine], the development of spasms entry is “none of those pups developed spasms”.
